This is an account of results in patent US20250032425A1, “FIRST IN CLASS USE OF ESTROGEN RECEPTOR BETA AGONISTS IN TREATING ANGELMAN SYNDROME AND RELEVANT AUTISM SPECTRUM DISORDERS” (BROWN UNIVERSITY, priority 2023, published 2025).

“Also recorded” adds a separate entry of the source.

Series [1] deals with Angelman syndrome (AS) mice. The experiment in a line: Fear conditioning test in AS mice. It is filed as in vivo, mouse. The method, then: Animal handling and experimental use strictly followed NIH guidelines and protocols approved by the local Institutional Animal Care and Use Committee (IACUC) of Brown University. In all experiments, Mice were age and gender-matched. Multiple liters were used for all experiments. Weaned mice, housed in groups of two to four per cage, were maintained on a 12-h light/dark cycle with food and water ad libitum.
(§1) ESRβ agonist AC-186 treatment in vivo. 10 mg/kg AC-186 was daily IP delivered after dissolved at high concentration (30 mg/ml) in DMSO and further diluted in 20% PEG300. Vehicle groups received the same volume and concentration of diluted DMSO in 20% PEG300. Treatment started at P13 and continued until mice were sacrificed at P42.
For evaluating hippocampus-dependent memory, the protocol described in Lau and Yang, et al., 2023 for the fear conditioning test was followed. Mice were placed in an electrified and sound-attenuated chamber (Coulbourn Instruments, Allentown, PA) which was exposed to a scent (0.1% coconut) diluted in ethanol (70%) on day 1. Mice were habituated to the chamber for 3 min before undergoing three conditioning trials: a tone (5 kHz, 70 dB, 30 s) co-terminating with a foot shock (0.7 mA, 1 s). Conditioning trials were separated by a 30-second interval. Following conditioning, mice rested inside the chamber for 1.5 min before returning to their home cage. […]

Series [2] deals with AS iOPCs differentiated into iOLs. The experiment in a line: Differentiation of AS patient-derived iOPCs into iOLs (MAG, CNPase, MBP). It is filed as cell-based, human. To be noted: AC-186 10 μM or clemastine 2.5 μM, 72 hours.
The conditions of series [3]: rodents and dogs; cited from earlier work.
The test system of series [4] is Angelman syndrome (AS) mice. The experiment in a line: Immunofluorescence histopathology of brain sections after treatment (oligodendroglia, myelination, ESRβ, UBE3A). The series is classed as in vivo, mouse. As to the method:
For immunofluorescence with brain tissue sections, mice were sacrificed under deep anesthesia using Xylazine (10 mg/kg body weight) and Ketamine (100 mg/kg body weight) and perfused through the left cardiac ventricle with ice-cold phosphate-buffered saline (PBS) followed by 4% paraformaldehyde (PFA) in PBS. Whole brains were removed and post-fixed in 4% PFA overnight at 4° C. followed by sequential immersion in 15% and 30% sucrose for cryoprotection. The brain was then dissected and 25 μm coronal sections were prepared with a Cryostat Leica. Sections collected on the charged microscope slides (Globe Scientific #1354W) were processed for immunohistochemical staining as follows. In brief, tissue sections were blocked for 1 hour at room temperature (RT) in 5% goat/donkey serum (G/DS) with 0.3% Triton-X100 in 0.1 M phosphate buffer (0.3% PBST). After blocking, tissue sections were incubated in primary antibody diluted in blocking solution overnight at 4° C. The following day, sections were briefly washed 3 times for 5 min each at RT in PBS followed by incubation with secondary antibodies diluted in blocking solution for 2 hours at RT. Sections were then briefly washed 3 times for 5 min each at RT in PBS and mounted using EMS Shield Mount with Dabco (Electron Microscopy Sciences, #17985-200) mounting media with 4′,6-diamidino-2-phenylindole (DAPI) (Vector Laboratories, #H-1200) to stain cell nuclei.
For the purpose of imaging brain sections, we utilized both the BioTek Lionheart FX Automated Microscope and the Zeiss LSM 880 confocal laser-scanning microscope. The subsequent image analysis and quantification were conducted using NIH ImageJ software, employing the particle and intensity analysis macro for detailed examination. Channels were separated, and images from various experimental groups were thresholded uniformly to identify individual cells. In each brain, 20-30 cells were outlined for analysis. To determine the extent of colocalization, we applied the Zeiss ZEN Microscopy Software's colocalization coefficient analysis tool, which allowed for precise measurement of overlapping signals within the selected cells.
To assess the levels of UBE3A protein within oligodendroglial cells, dual immunofluorescent staining was conducted. This involved the use of a UBE3A antibody sourced from Santa Cruz Biotechnology (sc-10294) and an Olig2 antibody provided by Aves Labs (#OLIG2-0020). The corresponding secondary antibodies were tagged with Alexa 647 and Alexa 488 fluorophores. These procedures were applied to coronal brain sections harvested from postnatal days 7-10, 30, and 42 from both control and Angelman Syndrome (AS) mice. We utilized a 20× objective on a GENS microscope to capture confocal images of UBE3A and Olig2 expression. Subsequent analysis was performed using NIH ImageJ software, where fluorescence intensities, denoted in arbitrary units (a.u.), were measured to determine the relative quantities of UBE3A protein. The quantification process involved delineating areas of interest around Olig2-positive cells. Quantitative analysis of ESR2 and MBP proteins was carried out using a similar method.
as §1

Where [5] appears, read: corpus callosum, AS mice vs AS saline.
Setting [6] is: corpus callosum, AS mice vs AS vehicle.
Where [7] appears, read: cortex, hippocampus, and fimbria, AS mice vs AS saline.

With `Oc1ccc(C2(c3ccccc3F)CCC(F)(F)CC2)cc1` [AC-186], the “Contextual fear conditioning, percentage of time spent freezing” value in series [1] (AS mice, 10 mg/kg daily IP, vs AS vehicle, 10 mg/kg) is “ameliorated; also recorded: increased”. Besides, the cued fear conditioning result in series [1] (all four groups) is recorded as “no intergroup differences”. Besides, the “oligodendrocyte differentiation (MAG, CNPase, MBP)” value in series [2] was “no impact on oligodendrocyte differentiation”. Besides, the bioavailability entry in series [3] is recorded as “satisfactory bioavailability; also recorded: effective bioavailability”. The UBE3A intensity entry in series [4] (AS mice vs AS saline) is given as “did not modify; also recorded: comparable”. Moreover, in series [4] (AS mouse brains), the “oligodendrocyte populations and myelination” value was “notably restored”. In series [4] (setting [5]), the “ESRβ intensity in Olig2-positive and O4-positive cells” value was “slightly increased; also recorded: increased”; the “O4-positive cells/mm^2” value was “increased”; the “Olig2-positive cells/mm^2” value is reported as “increased”. Besides, in series [4] (setting [6]), the “OPC density (PDGFRa-positive cells per square millimeter)” value was “increased”; the “proliferating OPCs (Ki67 and PDGFRa dual positive, proportion of total OPCs)” value was “increased”. Moreover, in series [4] (setting [7]), the MBP intensity result was “increased”, the O4-positive cell density entry was “increased” and the Olig2-positive cell density entry is “increased”. For the same compound, the “oligodendrocyte populations and myelination” value in series [4] (wildtype mice) was “no impact”.
